In patent US20250205256A1 (GH RESEARCH IRELAND LIMITED, priority 2022, published 2025):
Several values for one entry are separate records, joined by “and”; a condition that tells them apart may be missing. Equal entries are not always repeated.

Legend:
[1] = tested on: patient with postpartum depression (PPD); test: Clinical trial of inhaled 5-MeO-DMT in postpartum depression: Barkin Index of Maternal Functioning (BIMF); type: in vivo, human; conditions: PPD n=1
Source text: Maternal functioning can, for instance, be assessed using the Barkin Index of Maternal Functioning (BIMF). This index was designed to measure functioning in the year after childbirth. The BIMF is a 20-item self-report measure of functioning. Each item is assigned a score between 0 and 6 so that the maximum total score is 120. The higher the score, the better maternal functioning is rated.
The BIMF identifies the key functional domains of a mother during the postnatal period as: self-care, infant care, mother-child interaction, psychological wellbeing of the mother, social support, management, and adjustment.
(§1) The patient completed all planned visit days.

[2] = tested on: Escherichia coli strain WP2 uvrA pKM101; test: Bacterial mutation test, Escherichia coli; type: cell-based; conditions: up to 5000 μg/plate, absence and presence of rat liver S-9
Description: (§2) These conditions included treatments at concentrations up to 5000 μg/plate (the maximum recommended concentration according to current regulatory guidelines), in the absence and in the presence of a rat liver metabolic activation system (S-9).

[3] = tested on: patient with postpartum depression (PPD); test: Clinical trial of inhaled 5-MeO-DMT (IDR, 6 mg then 12 mg) in postpartum depression: BPRS; type: in vivo, human; conditions: PPD n=1
Source text: as §1

[4] = tested on: patients with treatment-resistant major depressive disorder (TRD); test: Phase 1/2 clinical trial of inhaled 5-MeO-DMT in TRD: BPRS items; type: in vivo, human; conditions: for BPRS Emotional Withdrawal score: baseline 13
Source text: Patients were assigned to different groups.
The BPRS item that is of particular relevance to negative thinking is “guilt feelings”. This item relates to over concern or remorse for past behaviour. Possible scores are: • 1—No guilt feelings. • 2—Very Mild. Concerned about having failed someone or at something but not preoccupied. Can shift thoughts to other matters easily. • 3—Mild. Concerned about having failed someone or at something with some preoccupation. Tends to voice guilt to others. • 4—Moderate. Disproportionate preoccupation with guilt, having done wrong, injured others by doing or failing to do something, but can readily turn attention to other things. • 5—Moderately Severe. Preoccupation with guilt, having failed someone or at something, can turn attention to other things, but only with great effort. Not delusional. • 6—Severe; Delusional guilt or unreasonable self-reproach very out of proportion to circumstances. Moderate preoccupation present. • 7—Extremely Severe. Delusional guilt or unreasonable self-reproach grossly out of proportion to circumstances. Subject is very preoccupied with guilt and is likely to disclose to others or act on delusions.
This trial was designed in two parts.

[5] = tested on: Salmonella typhimurium strains TA98, TA100, TA1535 and TA1537; test: Bacterial mutation test, Salmonella typhimurium; type: cell-based; conditions: up to 5000 μg/plate, absence and presence of rat liver S-9
Description: as §2

[6] = tested on: patient with postpartum depression (PPD); test: Clinical trial of inhaled 5-MeO-DMT in postpartum depression: safety and tolerability; type: in vivo, human; conditions: PPD n=1
Source text: as §1

[7] = 12 mg n=4 sum, 3 h after dose vs baseline
[8] = 12 mg n=4 sum, Day 1 vs baseline
[9] = 12 mg n=4 sum, Day 7 vs baseline
[10] = IDR n=8 sum, 3 h after last dose vs baseline

## COc1ccc2[nH]cc(CCN(C)C)c2c1 [5-MeO-DMT]
[1]; Day 7, from 92 to 105
  BIMF total score improvement, percent: 14%
[1]; Day 7, Day 0 score 3
  BIMF item 16 (I worry about how other people judge me (as a mother)) score: 5
[1]; Day 7, Day 0 score 5
  BIMF item 10 (I trust my own feelings (instincts) when taking care of my baby) score: 6
[1]; Day 7, Day 0 score 5, maximum 12
  BIMF functional domain Adjustment score: 6
[1]; Day 7, Day 0 score 9, maximum 18
  BIMF functional domain Self Care score: 13
[1]; Day 7, Day 0 score 12, maximum 12
  BIMF functional domain Infant Care score: 12
[1]; Day 7, Day 0 score 15, maximum 18
  BIMF functional domain Mother-Child Interaction score: 17
[1]; Day 7, Day 0 score 17, maximum 18
  BIMF functional domain Social Support score: 18
[1]; Day 7, Day 0 score 28, maximum 36
  BIMF functional domain Management score: 33
[1]; Day 7, Day 0 score 44, maximum 60
  BIMF functional domain Psychological Well-being score: 53
[1]; Day 7 vs Day 0
  BIMF TOTAL Δ (Day 7): 13
  BIMF functional domain Adjustment % Improvement: 20.00%
  BIMF functional domain Adjustment Δ (Day 7): 1
  BIMF functional domain Infant Care % Improvement: 0.00%
  BIMF functional domain Infant Care Δ (Day 7): 0
  BIMF functional domain Management % Improvement: 18% and 17.86%
  BIMF functional domain Management Δ (Day 7): 5
  BIMF functional domain Mother-Child Interaction % Improvement: 13.33%
  BIMF functional domain Mother-Child Interaction Δ (Day 7): 2
  BIMF functional domain Psychological Well-being % Improvement: 20.45%
  BIMF functional domain Psychological Well-being Δ (Day 7): 9
  BIMF functional domain Self Care % Improvement: 44% and 44.44%
  BIMF functional domain Self Care Δ (Day 7): 4
  BIMF functional domain Social Support % Improvement: 5.88%
  BIMF functional domain Social Support Δ (Day 7): 1
  BIMF item 1 (I am a good mother) Δ (Day 7): 0
  BIMF item 2 (I feel rested) Δ (Day 7): 2
  BIMF item 3 (comfortable with the way I've chosen to feed my baby) Δ (Day 7): 0
  BIMF item 4 (My baby and I understand each other) Δ (Day 7): 0
  BIMF item 5 (able to relax and enjoy time with my baby) Δ (Day 7): 1
  BIMF item 6 (people I can trust to care for my baby when I need a break) Δ (Day 7): 0
  BIMF item 8 (getting enough adult interaction) Δ (Day 7): 0
  BIMF item 9 (getting enough encouragement from other people) Δ (Day 7): 1
  BIMF item 10 (I trust my own feelings (instincts) when taking care of my baby) Δ (Day 7): 1
  BIMF item 11 (a little time each week to do something for myself) Δ (Day 7): 1
  BIMF item 12 (taking good care of my baby's physical needs) Δ (Day 7): 0
  BIMF item 13 (taking good care of my physical needs) Δ (Day 7): 1
  BIMF item 14 (good decisions about my baby's health and well being) Δ (Day 7): 0
  BIMF item 15 (My baby and I are getting into a routine) Δ (Day 7): 1
  BIMF item 16 (I worry about how other people judge me (as a mother)) Δ (Day 7): 2
  BIMF item 17 (able to take care of my baby and my other responsibilities) Δ (Day 7): 0
  BIMF item 18 (Anxiety or worry often interferes with my mothering ability) Δ (Day 7): 3
  BIMF item 19 (getting better at taking care of my baby) Δ (Day 7): 1
  BIMF item 20 (satisfied with the job I am doing as a new mother) Δ (Day 7): −1
[2]
  induction of mutation: did not induce mutation
[3]; Day 1 vs baseline
  BPRS Tension improvement: 5
[3]; Discharge vs baseline
  BPRS Tension improvement: 5
[4]; [7]
  BPRS Anxiety improvement: 14
  BPRS Blunted Affect improvement: 3
  BPRS Emotional Withdrawal improvement: 2
  BPRS Guilt Feelings improvement: 9
  BPRS Guilt Feelings percentage improvement: 50.00%
  BPRS Tension improvement: 5
[4]; 12 mg n=4 sum, 3 h after dose, baseline 11
  BPRS Blunted Affect score: 8
[4]; 12 mg n=4 sum, 3 h after dose
  BPRS Emotional Withdrawal score: 11
[4]; 12 mg n=4 sum, 3 h after dose, baseline 14
  BPRS Tension score: 9
[4]; 12 mg n=4 sum, 3 h after dose, baseline 18
  BPRS Guilt Feelings score: 9
[4]; 12 mg n=4 sum, 3 h after dose, baseline 25
  BPRS Anxiety score: 11
[4]; 12 mg n=4 sum, Day 1, baseline 11
  BPRS Blunted Affect score: 6
[4]; 12 mg n=4 sum, Day 1
  BPRS Emotional Withdrawal score: 8
[4]; 12 mg n=4 sum, Day 1, baseline 14
  BPRS Tension score: 6
[4]; 12 mg n=4 sum, Day 1, baseline 18
  BPRS Guilt Feelings score: 5
[4]; 12 mg n=4 sum, Day 1, baseline 25
  BPRS Anxiety score: 6
[4]; [8]
  BPRS Anxiety improvement: 19
  BPRS Blunted Affect improvement: 5
  BPRS Emotional Withdrawal improvement: 5
  BPRS Guilt Feelings improvement: 13
  BPRS Tension improvement: 8
[4]; 12 mg n=4 sum, Day 7, baseline 11
  BPRS Blunted Affect score: 5
[4]; 12 mg n=4 sum, Day 7
  BPRS Emotional Withdrawal score: 6
[4]; 12 mg n=4 sum, Day 7, baseline 14
  BPRS Tension score: 6
[4]; 12 mg n=4 sum, Day 7, baseline 18
  BPRS Guilt Feelings score: 5
[4]; 12 mg n=4 sum, Day 7, baseline 25
  BPRS Anxiety score: 6
[4]; [9]
  BPRS Anxiety improvement: 19
  BPRS Blunted Affect improvement: 6
  BPRS Emotional Withdrawal improvement: 7
  BPRS Guilt Feelings improvement: 13
  BPRS Tension improvement: 8
[4]; [10]
  BPRS Anxiety improvement: 18
  BPRS Blunted Affect improvement: 4
  BPRS Emotional Withdrawal improvement: 5
  BPRS Guilt Feelings improvement: 20
  BPRS Tension improvement: 5
[4]; IDR n=8 sum, 3 h after last dose
  BPRS Emotional Withdrawal score: 8
[4]; IDR n=8 sum, 3 h after last dose, baseline 15
  BPRS Blunted Affect score: 11
[4]; IDR n=8 sum, 3 h after last dose, baseline 16
  BPRS Tension score: 11
[4]; IDR n=8 sum, 3 h after last dose, baseline 34
  BPRS Guilt Feelings score: 14
[4]; IDR n=8 sum, 3 h after last dose, baseline 37
  BPRS Anxiety score: 19
[4]; IDR n=8 sum, Day 1
  BPRS Emotional Withdrawal score: 8
[4]; IDR n=8 sum, Day 1, baseline 15
  BPRS Blunted Affect score: 8
[4]; IDR n=8 sum, Day 1, baseline 16
  BPRS Tension score: 11
[4]; IDR n=8 sum, Day 1, baseline 34
  BPRS Guilt Feelings score: 11
[4]; IDR n=8 sum, Day 1, baseline 37
  BPRS Anxiety score: 16
[4]; IDR n=8 sum, Day 1 vs baseline
  BPRS Anxiety improvement: 21
  BPRS Blunted Affect improvement: 7
  BPRS Emotional Withdrawal improvement: 5
  BPRS Guilt Feelings improvement: 23
  BPRS Tension improvement: 5
[4]; IDR n=8 sum, Day 7
  BPRS Emotional Withdrawal score: 8
[4]; IDR n=8 sum, Day 7, baseline 15
  BPRS Blunted Affect score: 8
[4]; IDR n=8 sum, Day 7, baseline 16
  BPRS Tension score: 10
[4]; IDR n=8 sum, Day 7, baseline 34
  BPRS Guilt Feelings score: 10
[4]; IDR n=8 sum, Day 7, baseline 37
  BPRS Anxiety score: 17
[4]; IDR n=8 sum, Day 7 vs baseline
  BPRS Anxiety improvement: 20
  BPRS Blunted Affect improvement: 7
  BPRS Emotional Withdrawal improvement: 5
  BPRS Guilt Feelings improvement: 24
  BPRS Tension improvement: 6
[5]
  induction of mutation: did not induce mutation
[6]
  reported adverse events (cramping left abdominal pain and headache, Day 0): mild, short-lasting and resolved spontaneously
  tolerability of inhalation procedure: well tolerated with no inhalation-related adverse events
[6]; ECG 3 hours, laboratory 7 days, CADSS 3 hours, 1 day and 7 days
  ECG, safety laboratory analyses, CADSS: unremarkable
[6]; shortly after administration
  changes in vital parameters: temporary, clinically non-relevant increase in heart rate and blood pressure
